Assay results taken from patent US8158806B2, “DAT1” (Department of Biotechnology, priority 2004, dated 2012).
Like-named read-outs stand apart in the source and are kept apart here.

Columns and labels:
[1] = tested on: SiHa; test: MTT cell viability assay, SiHa; assay type: cell-based; conditions: SiHa (Human cervix), 48 hours, average of three experiments, read-out: IC50 values (growth inhibition constants)
Description: (§1) The compound DAT1 was tested for its cytotoxicity on human cervical, uterus and colon cancer cell lines and mouse fibrocercoma cells. Cell lines were obtained from ATCC, USA and NCCS, Pune, India. MTT assay, which correlates a fomazan dye formation wife the number of viable cells, was used for this purpose.
(§2) • 3. Cell Viability Assay: MTT assay was used to determine fee number of viable cells upon drug addition. Cells were seeded in microtitre plates (generally 5×10^3 cells per well) and were incubated with different concentrations of the cytotoxic agents for 48 h. Subsequently, 100 μl of MTT solution (0.6 mg/ml) was added per well and incubated at 37° C. for additional 2 h. The amount of formazan salt was quantified in quadruplicates by recording fee absorbance at 570 ran using a Biorad Plate reader. The growth inhibition constants (IC50) were calculated from the semi logarithmic dose response plots using fee nonlinear regression program Origin. […] Polymerization assay: MTP polymerization, in fee presence or absence of DAT1, was measured by the time course of fee turbidity at 37° at 345 nm. […] Tubulin binding: Emission spectra of DAT1 in presence of tubulin were recorded from 400 nm to 600 nm using an excitation wavelength of 374 nm. Excitation and emission bandpasses are 2.5 nm each and the fluorescence values recorded are uncorrected. […]

[2] = tested on: SW 620; test: MTT cell viability assay, SW 620; assay type: cell-based; conditions: SW 620 (Human colon), 48 hours, average of three experiments, read-out: IC50 values (growth inhibition constants)
Description: as §1
(§3) • 3. Cell Viability Assay: MTT assay was used to determine fee number of viable cells upon drug addition. Cells were seeded in microtitre plates (generally 5×10^3 cells per well) and were incubated with different concentrations of the cytotoxic agents for 48 h. Subsequently, 100 μl of MTT solution (0.6 mg/ml) was added per well and incubated at 37° C. for additional 2 h. The amount of formazan salt was quantified in quadruplicates by recording fee absorbance at 570 ran using a Biorad Plate reader. The growth inhibition constants (IC50) were calculated from the semi logarithmic dose response plots using fee nonlinear regression program Origin. All the experiments were done for at least three times. • 4. Microtubule and Tubulin Preparation: Microtubular protein was prepared from goat brains by two cycles of temperature dependent assembly-disassembly process in PEM buffer (100 mM PIPES, pH 6.9, 1 mM MgCl2 & 1 mM EGTA ) with 1 mM GTP at 37° C. For fee polymerization experiments, it was followed by one more cycle in PEM. Tubulin was purified from 2X MTP using glutamate buffer for assembly. • 5. Polymerization assay: MTP polymerization, in fee presence or absence of DAT1, was measured by the time course of fee turbidity at 37° at 345 nm. A Shimadzu UV-1601 double beam spectrophotometer fitted with a temperature-controlled circulating water bath was used for this purpose. • 6. […] Tubulin binding: Emission spectra of DAT1 in presence of tubulin were recorded from 400 nm to 600 nm using an excitation wavelength of 374 nm. Excitation and emission bandpasses are 2.5 nm each and the fluorescence values recorded are uncorrected. All fluorescence measurements were performed in a Perkin-Elmer model LS50B Luminescence spectrometer.

[3] = tested on: IMR 90 (lung epithelial); test: Cell survival in normal immortalized cell line; assay type: cell-based; conditions: concentration much more than the IC50 values in the cancer cell lines; data not shown
Description: The cell survival in fee normal immortalized cell line IMR 90 (lung epithelial) was good after fee treatment of DAT1 in a concentration which was much more than the IC50 values in all fee cancer cell lines tested. In comparison, fee cell survival was less upon vinblastine treatment and similar upon paclitaxel treatment in similar concentrations (data not shown).

[4] = tested on: HeLa; test: MTT cell viability assay, HeLa; assay type: cell-based; conditions: HeLa (Human cervix), 48 hours, average of three experiments, read-out: IC50 values (growth inhibition constants)
Description: as §1, §3

[5] = tested on: L-929; test: MTT cell viability assay, L-929; assay type: cell-based; conditions: L929, L-929 (Mouse connective tissue), 48 hours, average of three experiments, read-out: IC50 values (growth inhibition constants)
Description: as §1, §2

[6] = tested on: CaSki; test: MTT cell viability assay, CaSki; assay type: cell-based; conditions: Ca-Ski, CaSki (Human cervix), 48 hours, average of three experiments, read-out: IC50 values (growth inhibition constants)
Description: as §1, §2

[7] = tested on: MES-SA/Dx5; test: MTT cell viability assay, multidrug resistant MES-SA/Dx5; assay type: cell-based, Human; conditions: for IC50: MES-SA/Dx5 (Human uterus), multidrug resistant, 48 hours, MTT, average of three experiments, read-out: IC50 values (growth inhibition constants)
Description: as §1
• 3. Cell Viability Assay: MTT assay was used to determine fee number of viable cells upon drug addition. Cells were seeded in microtitre plates (generally 5×10^3 cells per well) and were incubated with different concentrations of the cytotoxic agents for 48 h. Subsequently, 100 μl of MTT solution (0.6 mg/ml) was added per well and incubated at 37° C. for additional 2 h. The amount of formazan salt was quantified in quadruplicates by recording fee absorbance at 570 ran using a Biorad Plate reader. The growth inhibition constants (IC50) were calculated from the semi logarithmic dose response plots using fee nonlinear regression program Origin. All the experiments were done for at least three times. • 4. Microtubule and Tubulin Preparation: Microtubular protein was prepared from goat brains by two cycles of temperature dependent assembly-disassembly process in PEM buffer (100 mM PIPES, pH 6.9, 1 mM MgCl2 & 1 mM EGTA ) with 1 mM GTP at 37° C. For fee polymerization experiments, it was followed by one more cycle in PEM. Tubulin was purified from 2X MTP using glutamate buffer for assembly. • 5. Polymerization assay: MTP polymerization, in fee presence or absence of DAT1, was measured by the time course of fee turbidity at 37° at 345 nm. A Shimadzu UV-1601 double beam spectrophotometer fitted with a temperature-controlled circulating water bath was used for this purpose. • 6. Immunofluorescence assay: HeLa cells were incubated with the drug for 24 h at 37° C., washed with PBS and fixed with 4% paraformaldehyde at 4° C. Subsequently, they were washed and permeabilized with 0.2% Triton X-100 in PBS for 20 min at 37° C. […] Tubulin binding: Emission spectra of DAT1 in presence of tubulin were recorded from 400 nm to 600 nm using an excitation wavelength of 374 nm. Excitation and emission bandpasses are 2.5 nm each and the fluorescence values recorded are uncorrected. All fluorescence measurements were performed in a Perkin-Elmer model LS50B Luminescence spectrometer.

[8] = tested on: HCT 116; test: MTT cell viability assay, HCT 116; assay type: cell-based; conditions: HCT 116 (Human colon), 48 hours, average of three experiments, read-out: IC50 values (growth inhibition constants)
Description: as §1, §3

[9] = tested on: human cervical, uterus and colon cancer cell lines and mouse fibrocercoma cells; test: MTT cytotoxicity, panel of cancer cell lines (summary); assay type: cell-based; conditions: read-out: IC50 values, range
Description: as §1, §2

[10] = multidrug resistant cell line MES-SA/DX5

IC50 [4] [nM] | IC50 [8] [nM] | SMILES | IC50 [1] [nM] | IC50 [2] [nM] | cell survival after treatment [3] | IC50 [5] [nM] | IC50 [6] [nM] | IC50 [7] [nM] | times more active than paclitaxel [7, 10] [times] | times more active than vinblastine [7, 10] [times] | IC50 ([9]; in 2 cell lines) [nM] | IC50 ([9]; in 5 out of the 9 cell lines tested) [nM]
54 | 300 | COc1ccc(Nc2nc(N)c(C(=O)c3ccccc3)s2)cc1 [DAT1, Diaminoketothiazole] | 5000 | 200 | good | 1000 | 200 | 350 | 15 | 2 | 1000 to 5000 | 50 to 300
34 | 12 | CC(=O)O[C@H]1C(=O)[C@@]2(C)[C@H]([C@H](OC(=O)c3ccccc3)[C@]3(O)C[C@H](OC(=O)[C@H](O)[C@@H](NC(=O)c4ccccc4)c4ccccc4)C(C)=C1C3(C)C)[C@]1(OC(C)=O)CO[C@@H]1C[C@@H]2O [Paclitaxel] | 1100 | 7 | similar | 300 | 20 | 8600 | – | – | – | –
1 | 5 | CC[C@]1(O)C[C@@H]2CN(CCc3c([nH]c4ccccc34)[C@@](C(=O)OC)(c3cc4c(cc3OC)N(C)[C@H]3[C@@](O)(C(=O)OC)[C@H](OC(C)=O)[C@]5(CC)C=CCN6CC[C@]43[C@@H]65)C2)C1 [Vinblastine] | – | 200 | less | – | – | 730 | – | – | – | –
